According to ChEMBL document CHEMBL3885881, “DrugMatrix”:

Species: Rattus norvegicus
Experiment: DrugMatrix - Regimen: Daily Repeat
Type: toxicity, organism-based, Sprague-Dawley
Design: regimen Daily Repeat, gender Male, age 6-8 weeks
Conditions: in vivo, po, route oral GAVAGE, vehicle 100 % WATER; for ABSOLUTE BASOPHIL / ABSOLUTE EOSINOPHIL / ABSOLUTE LYMPHOCYTE / ABSOLUTE MONOCYTE / ABSOLUTE SEGMENTED NEUTROPHIL / BASOPHIL / EOSINOPHIL / ERYTHROCYTE COUNT / HEMATOCRIT / HEMOGLOBIN / LEUKOCYTE COUNT / LYMPHOCYTE / MEAN CORPUSCULAR HEMOGLOBIN / MEAN CORPUSCULAR HEMOGLOBIN CONCENTRATION / MEAN CORPUSCULAR VOLUME / MONOCYTE / NEUTROPHIL / NUCLEATED RED BLOOD CELLS / PLATELET COUNT: tissue Blood; for ALANINE AMINOTRANSFERASE / ALBUMIN / ALKALINE PHOSPHATASE / ASPARTATE AMINOTRANSFERASE / BLOOD UREA NITROGEN / CARBON DIOXIDE / CHLORIDE / CHOLESTEROL / CREATINE PHOSPHOKINASE / CREATININE / GLUCOSE / LACTATE DEHYDROGENASE / LIPASE / PHOSPHORUS / POTASSIUM / SODIUM / TOTAL BILIRUBIN / TOTAL PROTEIN / URIC ACID: tissue Plasma
[1] = 0 mg/kg, 72 h, dose level Control, time 3 day
[2] = 0 mg/kg, 120 h, dose level Control, time 5 day
[3] = 15 mg/kg, 72 h, dose level Low, time 3 day

## NNC(=O)c1ccncc1 [ISONIAZID]
[1]
  ABSOLUTE BASOPHIL: 0 CELLS/uL
  ABSOLUTE EOSINOPHIL: 46 CELLS/uL
  ABSOLUTE LYMPHOCYTE: 10225.67 CELLS/uL
  ABSOLUTE MONOCYTE: 319.33 CELLS/uL
  ABSOLUTE SEGMENTED NEUTROPHIL: 1242.33 CELLS/uL
  BASOPHIL: 0%
  EOSINOPHIL: 0.33%
  ERYTHROCYTE COUNT: 5.17 x10E6/uL
  HEMATOCRIT: 33.43%
  HEMOGLOBIN: 12.55 G/DL
  LEUKOCYTE COUNT: 11.83 x10E3/uL
  LYMPHOCYTE: 86.5%
  MEAN CORPUSCULAR HEMOGLOBIN: 24.35 pg
  MEAN CORPUSCULAR HEMOGLOBIN CONCENTRATION: 37.57 G/DL
  MEAN CORPUSCULAR VOLUME: 64.8 fL
  MONOCYTE: 2.67%
  NEUTROPHIL: 10.5%
  NUCLEATED RED BLOOD CELLS: 0.17 /100WBC
  PLATELET COUNT: 1026.17 x10E3/uL
  ALANINE AMINOTRANSFERASE: 52.67 u/L
  ALBUMIN: 4.17 G/DL
  ALKALINE PHOSPHATASE: 331 u/L
  ASPARTATE AMINOTRANSFERASE: 92.33 u/L
  BLOOD UREA NITROGEN: 15.33 mg/dL
  CARBON DIOXIDE: 26.17 mmol/L
  CHLORIDE: 103.17 MEQ/L
  CHOLESTEROL: 73.67 mg/dL
  CREATINE PHOSPHOKINASE: 472.83 u/L
  CREATININE: 0.29 mg/dL
  GLUCOSE: 178.5 mg/dL
  LACTATE DEHYDROGENASE: 244.83 u/L
  LIPASE: 10.67 u/L
  PHOSPHORUS: 12.45 mg/dL
  POTASSIUM: 6.35 MEQ/L
  SODIUM: 144.27 MEQ/L
  TOTAL BILIRUBIN: 0.13 mg/dL
  TOTAL PROTEIN: 5.77 G/DL
  URIC ACID: 2.08 mg/dL
[2]
  ABSOLUTE BASOPHIL: 0 CELLS/uL
  ABSOLUTE EOSINOPHIL: 23.5 CELLS/uL
  ABSOLUTE LYMPHOCYTE: 12797.33 CELLS/uL
  ABSOLUTE MONOCYTE: 465.5 CELLS/uL
  ABSOLUTE SEGMENTED NEUTROPHIL: 1313.67 CELLS/uL
  BASOPHIL: 0%
  EOSINOPHIL: 0.17%
  ERYTHROCYTE COUNT: 5.76 x10E6/uL
  HEMATOCRIT: 36.72%
  HEMOGLOBIN: 13.72 G/DL
  LEUKOCYTE COUNT: 14.6 x10E3/uL
  LYMPHOCYTE: 87.5%
  MEAN CORPUSCULAR HEMOGLOBIN: 23.8 pg
  MEAN CORPUSCULAR HEMOGLOBIN CONCENTRATION: 37.35 G/DL
  MEAN CORPUSCULAR VOLUME: 63.72 fL
  MONOCYTE: 3.17%
  NEUTROPHIL: 9.17%
  NUCLEATED RED BLOOD CELLS: 0.33 /100WBC
  PLATELET COUNT: 1270.67 x10E3/uL
  ALANINE AMINOTRANSFERASE: 50.5 u/L
  ALBUMIN: 4.32 G/DL
  ALKALINE PHOSPHATASE: 339.67 u/L
  ASPARTATE AMINOTRANSFERASE: 88 u/L
  BLOOD UREA NITROGEN: 17 mg/dL
  CARBON DIOXIDE: 25 mmol/L
  CHLORIDE: 103.83 MEQ/L
  CHOLESTEROL: 71.33 mg/dL
  CREATINE PHOSPHOKINASE: 281.83 u/L
  CREATININE: 0.26 mg/dL
  GLUCOSE: 161.67 mg/dL
  LACTATE DEHYDROGENASE: 191.17 u/L
  LIPASE: 10.17 u/L
  PHOSPHORUS: 11.72 mg/dL
  POTASSIUM: 6.76 MEQ/L
  SODIUM: 145.17 MEQ/L
  TOTAL BILIRUBIN: 0.2 mg/dL
  TOTAL PROTEIN: 6.15 G/DL
  URIC ACID: 2 mg/dL
[3]
  ABSOLUTE BASOPHIL: 0 CELLS/uL
  ABSOLUTE EOSINOPHIL: 0 CELLS/uL
  ABSOLUTE LYMPHOCYTE: 12954 CELLS/uL
  ABSOLUTE MONOCYTE: 520 CELLS/uL
  ABSOLUTE SEGMENTED NEUTROPHIL: 1492.67 CELLS/uL
  BASOPHIL: 0%
  EOSINOPHIL: 0%
  ERYTHROCYTE COUNT: 5.66 x10E6/uL
  HEMATOCRIT: 34.97%
  HEMOGLOBIN: 13.17 G/DL
  LEUKOCYTE COUNT: 14.97 x10E3/uL
  LYMPHOCYTE: 86.33%
  MEAN CORPUSCULAR HEMOGLOBIN: 23.27 pg
  MEAN CORPUSCULAR HEMOGLOBIN CONCENTRATION: 37.67 G/DL
  MEAN CORPUSCULAR VOLUME: 61.73 fL
  MONOCYTE: 3.67%
  NEUTROPHIL: 10%
  NUCLEATED RED BLOOD CELLS: 0 /100WBC
  PLATELET COUNT: 1157.33 x10E3/uL
  ALANINE AMINOTRANSFERASE: 52.67 u/L
  ALBUMIN: 4.23 G/DL
  ALKALINE PHOSPHATASE: 369.67 u/L
  ASPARTATE AMINOTRANSFERASE: 95.67 u/L
  BLOOD UREA NITROGEN: 14.33 mg/dL
  CARBON DIOXIDE: 26 mmol/L
  CHLORIDE: 102.33 MEQ/L
  CHOLESTEROL: 93.67 mg/dL
  CREATINE PHOSPHOKINASE: 235.67 u/L
  CREATININE: 0.28 mg/dL
  GLUCOSE: 155 mg/dL
  LACTATE DEHYDROGENASE: 140.33 u/L
  LIPASE: 12 u/L
  PHOSPHORUS: 12.77 mg/dL
  POTASSIUM: 6.52 MEQ/L
  SODIUM: 144.23 MEQ/L
  TOTAL BILIRUBIN: 0.2 mg/dL
  TOTAL PROTEIN: 5.83 G/DL
  URIC ACID: 1.4 mg/dL
